The test system of experiment [1] is Mycobacterium tuberculosis. As to the kind of experiment: Antimycobacterial activity against Mycobacterium tuberculosis H37Rv harboring deltarv3406 dprE1 L368P after overnight incubation by REMA method. Format: functional.
In experiment [2] the test system is Mycobacterium tuberculosis. Briefly: Antimycobacterial activity against Mycobacterium tuberculosis H37Rv harboring rv3405c mutant TRC4 after overnight incubation by REMA method. Format: functional.

A word on the MIC99: it is an inhibitory concentration at the 99% level, which refers to growth in some studies and to a panel of isolates in others.

≈ marks a conversion by molar mass, not a printed value.

`N#Cc1ccc(CNc2nc3cc(C(F)(F)F)ccc3nc2C(=O)O)cc1`: the MIC99 in experiment [1] came out at 100 µM (≈ 37.2 µg/mL); in experiment [2], 50 µM (≈ 18.6 µg/mL).

Turning to `O=C(O)c1nc2ccc(C(F)(F)F)cc2nc1NCc1ccc(Cl)cc1`, the MIC99 was found to be 25 µM (≈ 9.54 µg/mL) in experiment [1] and 12.5 µM (≈ 4.77 µg/mL) in experiment [2].

In the case of `COc1ccc(CNc2nc3cc(C(F)(F)F)ccc3nc2C(=O)O)cc1`, the MIC99 in experiment [1] was 12.5 µM (≈ 4.72 µg/mL); in experiment [2] it was 6.3 µM (≈ 2.38 µg/mL).

In the case of `CCOc1ccc(CNc2nc3cc(C(F)(F)F)ccc3nc2C(=O)O)cc1`, the MIC99 in experiment [1] is 12.5 µM (≈ 4.89 µg/mL); in experiment [2] it was 6.3 µM (≈ 2.47 µg/mL).

For `O=C(O)c1nc2ccc(C(F)(F)F)cc2nc1NCc1ccc(F)cc1`, the MIC99 in experiment [1] and in experiment [2] was 25 µM (≈ 9.13 µg/mL) throughout.

Turning to `CCOC(=O)c1nc2ccc(C(F)(F)F)cc2nc1NCc1ccc(OC)cc1`, the figures for the MIC99 in experiment [1] and in experiment [2] were 12.5 to 25 µM and 6.3 µM (≈ 2.55 µg/mL), respectively.

As to `COc1ccc(CNc2nc3cc(C(F)(F)F)ccc3nc2C(=O)O)cc1F`, the MIC99 in experiment [1] came out at 25 µM (≈ 9.88 µg/mL); in experiment [2], 12.5 µM (≈ 4.94 µg/mL).

With `O=C(O)c1nc2ccc(C(F)(F)F)cc2nc1NCc1ccc(C(F)(F)F)cc1`, the MIC99 in experiment [1] was found to be 25 µM (≈ 10.4 µg/mL); in experiment [2], 12.5 µM (≈ 5.19 µg/mL).
